{"source": "patent US7700652B2", "about": "“Treating urinary incontinence using prodrugs of GABA analogs” (XenoPort, Inc., priority 2003, dated 2010)", "assay": "drug release from the osmotic sustained release dosage form in artificial gastric fluid", "type": "physicochemical", "conditions": "sustained release oral osmotic dosage form of Example 1 (700 mg drug composition per bilayer core, one 10 mil passageway)", "description": "Next, one 10 mil (0.254 mm) exit passageway is mechanically drilled through the semipermeable wall to connect the drug layer with the exterior of the dosage system. The residual solvent is removed by first drying for 120 hours at 50° C. and 30% relative humidity, then the systems are dried for 2 hours at 50° C. to remove excess moisture. The drug dosage form produced by this process provides: ˜90 wt % 1-{[(α-isobutanoyloxyethoxy)carbonyl]aminomethyl}-1-cyclohexane acetic acid, 4 wt % hydroxypropylmethylcellulose (11,200 molecular weight), 4 wt % polyethylene oxide of 5,000,000 molecular weight and 1 wt % magnesium stearate in the drug layer. The push composition comprises […] polyethylene oxide (7,500,000 molecular weight) 30 wt % sodium chloride, 5 wt % hydroxypropylmethylcellulose (11,200 molecular weight) 1 wt % red ferric oxide, 0.25 wt % magnesium stearate, and 0.075 wt % of butylated hydroxytoluene. The wall comprises 100 wt % cellulose acetate comprising a ˜40% acetyl content. The dosage form has one passageway, 10 mils (0.254 mm), and it has a 1-{[(α-isobutanoyloxyethoxy)carbonyl]aminomethyl}-1-cyclohexane acetic acid release rate of >20 mg/hr and a half life for drug release of >8 hours in artificial gastric fluid.", "data": [{"smiles": "CC(OC(=O)NCC1(CC(=O)O)CCCCC1)OC(=O)C(C)C", "note": "(stereo not drawn) [1-{[(α-isobutanoyloxyethoxy)carbonyl]aminomethyl}-1-cyclohexane acetic acid]", "values": [{"measurement": "release rate", "value": "> 20", "unit": "mg/h"}]}]}
